Assay results as given in US20250179187A1, “ANTI PD-L2 ANTIBODY” (REJUVERON SENESCENCE THERAPEUTICS AG, priority 2022, published 2025).

System: PyMT spontaneous tumors
Test: Spontaneous mouse PyMT breast tumor model with tumor immunostaining
Assay type: in vivo
Details: immunohistochemistry; antibody co-treated with doxorubicin vs Vehicle or Doxorubicin+mIgG1 (p<0.05)
Method: Hemizygous transgenic PyMT mice were allowed to develop tumors to an average size of around 200 cubic millimeters, usually around 9 weeks, at which time treatment was initiated, with N=3-5 per treatment group. Doxorubicin (Aurovitas) was administered intraperitoneally once per week at 4 mg/kg and antibodies were administered every three days at a dose of 10 mg/kg during four weeks or 3 mg/kg where noted. Vehicle-treated animals received only vehicle solvent for doxorubicin as a no-treatment control. Tumors were measured with a standard caliper once per week. At the end of the study, tumors were resected and further analyzed by immunohistochemistry. […]
For double SA-beta-galactosidase/PD-L2 staining, following resection, tumors were fixed in 2% paraformaldehyde and 0.2% glutaldehyde in PBS for 2 hours at room temperature. […] To quantify the number of cells double positive for SA-beta-galactosidase and PDL2, 3 random fields from 2 mammary glands from each animal in each treatment group was analyzed with Image J software. Staining for CD3, CD4 and CD8 was also carried out by standard immunohistochemistry techniques on paraffin-embedded material and quantified according to pixel density using Image J software.

COc1cccc2c1C(=O)c1c(O)c3c(c(O)c1C2=O)C[C@@](O)(C(=O)CO)C[C@@H]3O[C@H]1C[C@H](N)[C@H](O)[C@H](C)O1 [doxorubicin, reference compound]
cells double-positive for PD-L2 and SA-βGal in PyMT tumors: significantly induces double-positive cells
